The format of this data set is physicochemical. On the procedure: 100 nm polymeric cores were prepared using 0.67 dL g^−1 carboxyl-terminated 50:50 poly(lactic-co-glycolic) acid (PLGA) (LACTEL Absorbable Polymers) in a nanoprecipitation process. 1 mL of 10 mg mL^−1 PLGA solution in acetone was added dropwise to 3 mL of water. For fluorescently labeled nanoformulations, 1,1′-dioctadecyl-3,3,3′,3′-tetramethylindodicarbocyanine perchlorate (DiD, ex=644 nm/em=665 nm, Life Technologies) was loaded into the polymeric cores at 0.1 wt %. The mixture was then stirred in open air for 1 h and placed in vacuum for another 3 h. The resulting nanoparticle solution was filtered with 10 kDa MWCO Amicon Ultra-4 Centrifugal Filters (Millipore). Platelet membrane cloaking was then accomplished by dispersing and fusing platelet membrane vesicles with PLGA particles via sonication using an FS30D bath sonicator at a frequency of 42 kHz and a power of 100 W for 2 min. […] The nanoparticle solutions were subject to either a freeze-thaw cycle or lyophilization followed by resuspension. The resulting particle solution was then monitored for particle size using DLS. […] RBCNPs were prepared using the same polymeric cores and RBC membranes of equivalent total surface area to the platelet membranes using a previously described protocol^16.

Regarding PNPs, the colloidal stability entry is reported as “Improved colloidal stability”; the “size and stability after storage” value is “retain their size and stability”.

Values taken from US11224577B2, “Treating infection by a platelet-targeting microbe using nanoparticles” (The Regents of the University of California, priority 2015, dated 2022).
